Data on seven molecules can be found in ChEMBL document CHEMBL3407467, “Recent advances in the chemistry and biology of pyridopyrimidines” (Eur J Med Chem, 2015).

The nature of assay [1]: Inhibition of human DHFR mutant by spectrophotometric assay.
For assay [2], the target named is T1, Dihydrofolate reductase (Homo sapiens, UniProt P00374).
T1 sequence (P00374 whole entry): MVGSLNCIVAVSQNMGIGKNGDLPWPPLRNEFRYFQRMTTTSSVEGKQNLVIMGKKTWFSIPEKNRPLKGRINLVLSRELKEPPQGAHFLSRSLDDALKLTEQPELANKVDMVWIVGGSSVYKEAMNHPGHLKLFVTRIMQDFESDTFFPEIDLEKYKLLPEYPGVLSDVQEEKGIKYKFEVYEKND
In words: Inhibition of recombinant human DHFR expressed in Escherichia coli Rosetta Gami B (DE3) by spectrophotometric assay.

The target of assay [3] is T2, Dihydrofolate reductase (Pneumocystis carinii, UniProt P16184).
T2 sequence (P16184 whole entry): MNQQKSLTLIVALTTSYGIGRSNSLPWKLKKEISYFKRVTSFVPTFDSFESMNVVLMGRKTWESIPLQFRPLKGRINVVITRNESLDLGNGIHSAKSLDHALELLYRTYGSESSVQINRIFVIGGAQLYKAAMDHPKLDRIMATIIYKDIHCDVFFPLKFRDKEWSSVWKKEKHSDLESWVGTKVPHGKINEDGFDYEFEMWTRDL
Description: Inhibition of recombinant Pneumocystis carinii DHFR expressed in Escherichia coli Rosetta Gami B (DE3) by spectrophotometric assay.

Assay [4] is described as follows: Inhibition of recombinant Pneumocystis jirovecii DHFR expressed in Escherichia coli Rosetta Gami B (DE3) by spectrophotometric assay.
Assay [5] can be described thus: Inhibition of Pneumocystis carinii DHFR K37Q/F69N mutant by spectrophotometric assay.
Assay [6] concerns the target Dihydrofolate reductase (Pneumocystis carinii, UniProt P16184, K37Q). In words: Inhibition of Pneumocystis carinii DHFR K37Q mutant by spectrophotometric assay.
A short description of assay [7]: Inhibition of Pneumocystis jirovecii DHFR.
Assay [8] deals with Receptor tyrosine-protein kinase erbB-2 (Homo sapiens, UniProt P04626). Description: Inhibition of ErbB-2 intracellular domain (unknown origin) purified from a baculovirus expression system using Biotin-(amino hexonoic acid)-EEEEYFELVAKKK-CONH2 as substrate after 10 mins by scintillation counting in presence of [gamma-33P]ATP.
Sequence of Receptor tyrosine-protein kinase erbB-2 (P04626 whole entry, the tested form may be a part): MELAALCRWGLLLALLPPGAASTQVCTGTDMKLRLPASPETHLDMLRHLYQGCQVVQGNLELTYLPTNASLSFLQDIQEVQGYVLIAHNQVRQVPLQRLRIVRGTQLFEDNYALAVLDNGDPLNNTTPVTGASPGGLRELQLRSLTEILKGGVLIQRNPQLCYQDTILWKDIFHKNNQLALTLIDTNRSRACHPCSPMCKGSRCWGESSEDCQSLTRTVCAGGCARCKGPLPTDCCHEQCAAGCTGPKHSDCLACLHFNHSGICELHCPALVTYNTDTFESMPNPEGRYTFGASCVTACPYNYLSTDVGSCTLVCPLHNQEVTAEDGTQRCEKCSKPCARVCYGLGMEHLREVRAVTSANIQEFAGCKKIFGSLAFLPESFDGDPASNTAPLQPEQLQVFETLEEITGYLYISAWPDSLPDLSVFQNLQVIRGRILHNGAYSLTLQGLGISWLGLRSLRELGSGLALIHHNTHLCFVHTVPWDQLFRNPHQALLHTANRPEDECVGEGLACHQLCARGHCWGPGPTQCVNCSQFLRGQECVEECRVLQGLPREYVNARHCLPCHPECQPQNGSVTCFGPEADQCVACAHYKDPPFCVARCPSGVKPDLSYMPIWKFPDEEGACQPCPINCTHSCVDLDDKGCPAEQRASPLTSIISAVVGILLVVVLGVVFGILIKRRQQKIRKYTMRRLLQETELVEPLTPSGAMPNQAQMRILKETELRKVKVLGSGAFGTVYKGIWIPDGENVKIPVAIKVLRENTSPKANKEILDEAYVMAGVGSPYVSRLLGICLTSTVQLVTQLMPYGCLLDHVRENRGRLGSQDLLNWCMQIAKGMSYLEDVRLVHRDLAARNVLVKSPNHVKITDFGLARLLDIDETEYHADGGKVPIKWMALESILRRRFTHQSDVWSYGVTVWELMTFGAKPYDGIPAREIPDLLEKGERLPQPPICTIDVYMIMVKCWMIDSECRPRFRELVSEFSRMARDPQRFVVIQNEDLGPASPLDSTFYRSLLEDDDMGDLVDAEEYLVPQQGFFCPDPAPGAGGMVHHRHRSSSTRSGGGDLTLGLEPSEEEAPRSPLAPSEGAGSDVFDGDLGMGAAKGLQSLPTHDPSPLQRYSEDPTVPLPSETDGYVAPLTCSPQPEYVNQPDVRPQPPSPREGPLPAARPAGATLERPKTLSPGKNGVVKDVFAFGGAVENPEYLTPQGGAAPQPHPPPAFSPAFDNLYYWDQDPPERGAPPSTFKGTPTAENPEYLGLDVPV
A further assay addresses Adenosine kinase (Homo sapiens, UniProt P55263). In words: Inhibition of adenosine kinase (unknown origin).

pIC50, pKi: −log10 of the molar value.

Sequence of Adenosine kinase (P55263 whole entry): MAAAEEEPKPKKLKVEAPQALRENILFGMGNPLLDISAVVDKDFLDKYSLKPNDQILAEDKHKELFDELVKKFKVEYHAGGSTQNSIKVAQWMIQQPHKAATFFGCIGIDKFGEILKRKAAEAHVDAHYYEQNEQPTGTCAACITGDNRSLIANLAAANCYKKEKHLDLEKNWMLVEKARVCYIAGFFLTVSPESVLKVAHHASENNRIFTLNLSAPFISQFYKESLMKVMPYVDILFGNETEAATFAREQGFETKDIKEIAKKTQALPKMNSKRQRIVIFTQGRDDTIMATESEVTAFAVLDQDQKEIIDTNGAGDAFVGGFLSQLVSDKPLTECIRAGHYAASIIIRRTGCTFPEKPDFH
Sequence of Dihydrofolate reductase (Pneumocystis carinii, UniProt P16184, K37Q) (P16184 whole entry K37Q): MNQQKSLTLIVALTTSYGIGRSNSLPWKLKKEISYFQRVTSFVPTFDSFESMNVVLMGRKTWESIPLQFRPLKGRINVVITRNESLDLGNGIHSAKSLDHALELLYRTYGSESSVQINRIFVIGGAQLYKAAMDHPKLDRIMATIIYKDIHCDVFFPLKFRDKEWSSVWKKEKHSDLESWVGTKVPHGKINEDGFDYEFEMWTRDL

On to `Nc1nc(N)c2cc(CNc3cc(Cl)ccc3Cl)cnc2n1`, for which the pKi – broadly, the negative decadic logarithm of the Ki, by convention in mol/L – was 9.24 in assay [1]; 7.61 at Dihydrofolate reductase [2]; 8.20 on Dihydrofolate reductase [3]; 8.57 in [4]; 9.15 in assay [5]; 9.59 at Dihydrofolate reductase [6]. Regarding `CN(c1cc(F)c(F)c(F)c1)c1cnc2nc(N)nc(N)c2c1`, in assay [7], the pIC50 (as a rule, the negative decadic logarithm of the IC50, by convention in mol/L) was 8.38.

As for `CN(CCO)c1cc2c(Nc3ccc4c(cnn4Cc4ccccc4)c3)ncnc2cn1`, the negative logarithm of the IC50 (pIC50) in [8] was 7.52. Still for that read-out and setting: the same measure for `[O-][S+]1CCN(Cc2ccc(-c3cc4c(Nc5ccc(OCc6cccc(F)c6)cc5)ncnc4cn3)o2)CC1`: 7.68; for `CS(=O)(=O)CCNCc1ccc(-c2cc3c(Nc4ccc(OCc5ccccc5)cc4)ncnc3cn2)o1`: 7.59. `Nc1ncnc2nc(-c3ccc(N4CCOCC4)nc3)cc(-c3cccc(Br)c3)c12` showed a pIC50 at Adenosine kinase of 8.70. Consider `CN(C)c1cc2c(Nc3ccc4c(cnn4Cc4ccccc4)c3)ncnc2cn1` [GW282974X], for which the pIC50 in assay [8] was 7.80.
